Measured values: ChEMBL document CHEMBL1201862, “PubChem BioAssay data set” (2004)
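Five compound concentrations were applied to cells in 96-well plates for 48 hours; endpoints were derived by simple linear interpolation of the resulting dose-response curve. GI50: concentration for 50% inhibition of growth.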 Activity calls are given as the source filed them. Rule as the data show it: active = GI50 up to about 1.1 µM and inactive = higher.

How the values were obtained:
Assay in all cases: DTP human tumour cell line panel, 48 h
[1] = test system: HOP-62
[2] = test system: K562
[3] = test system: COLO 205
[4] = test system: SK-MEL-2
[5] = test system: HOP-18
[6] = test system: UO-31
[7] = test system: KM-20L2
[8] = test system: SNB-19
[9] = test system: SNB-75
[10] = test system: TK-10
[11] = test system: HCT-15
[12] = test system: HCC 2998
[13] = test system: SW-620
[14] = test system: OVCAR-8
[15] = test system: HCT-116
[16] = test system: OVCAR-3
[17] = test system: SK-MEL-28
[18] = test system: KM12
[19] = test system: UACC-257
[20] = test system: CCRF-CEM
[21] = test system: NCI-H226
[22] = test system: HT-29
[23] = test system: MOLT-4
[24] = test system: SF-268
[25] = test system: NCI-H23
[26] = test system: 786-0
[27] = test system: OVCAR-4
[28] = test system: UACC-62
[29] = test system: SNB-78
[30] = test system: HOP-92
[31] = test system: OVCAR-5
[32] = test system: M19-MEL
[33] = test system: EKVX
[34] = test system: ACHN
[35] = test system: NCI-H460
[36] = test system: RPMI-8226
[37] = test system: SK-OV-3
[38] = test system: SR
[39] = test system: XF498
[40] = test system: SK-MEL-5
[41] = test system: DMS-273
[42] = test system: A549
[43] = test system: DLD-1
[44] = test system: A498
[45] = test system: Malme-3M
[46] = test system: SN12C
[47] = test system: CAKI-1
[48] = test system: LOX IMVI
[49] = test system: NCI-H522
[50] = test system: IGROV-1
[51] = test system: HL-60
[52] = test system: M14
[53] = test system: SF-295
[54] = test system: SF-539
[55] = test system: LXFL 529
[56] = test system: U-251
[57] = test system: DMS-114

With `C#CCSc1nc(N)c2ncn(C3OC(COP(=O)(O)O)C(O)C3O)c2n1` (stereo not given) the GI50 [1] was > 239 µM (inactive), the GI50 [2] was > 239 µM (inactive) and the GI50 [3] was > 239 µM (inactive). For the same compound, the GI50 [4] was > 239 µM (inactive), the GI50 [5] was > 239 µM (inactive) and the GI50 [6] was > 239 µM (inactive). The GI50 [7] was > 239 µM (inactive), the GI50 [8] was > 239 µM (inactive) and the GI50 [9] was > 239 µM (inactive). The GI50 [10] was > 239 µM (inactive), the GI50 [11] was over 239 µM and the GI50 [12] was > 239 µM (inactive). For the same compound, the GI50 [13] was > 239 µM (inactive), the GI50 [14] was > 239 µM (inactive) and the GI50 [15] was > 239 µM (inactive). For the same compound, the GI50 [16] was > 239 µM (inactive), the GI50 [17] was > 239 µM (inactive) and the GI50 [18] was > 239 µM (inactive). For the same compound, the GI50 [19] was > 239 µM (inactive), the GI50 [20] was > 239 µM (inactive) and the GI50 [21] was > 239 µM (inactive). The GI50 [22] was > 239 µM (inactive), the GI50 [23] was > 239 µM (inactive) and the GI50 [24] was > 239 µM (inactive). The GI50 [25] was > 239 µM (inactive), the GI50 [26] was > 239 µM (inactive) and the GI50 [27] was > 239 µM (inactive). For the same compound, the GI50 [28] was > 239 µM (inactive), the GI50 [29] was > 239 µM (inactive) and the GI50 [30] was > 239 µM (inactive). The GI50 [31] was > 239 µM (inactive), the GI50 [32] was > 239 µM (inactive) and the GI50 [33] was > 239 µM (inactive). The GI50 [34] was > 239 µM (inactive), the GI50 [35] was > 239 µM (inactive) and the GI50 [36] was > 239 µM (inactive). For the same compound, the GI50 [37] was > 239 µM (inactive), the GI50 [38] was > 239 µM (inactive) and the GI50 [39] was > 239 µM (inactive). For the same compound, the GI50 [40] was > 239 µM (inactive), the GI50 [41] was > 239 µM (inactive) and the GI50 [42] was > 239 µM (inactive). The GI50 [43] was > 239 µM (inactive), the GI50 [44] was > 239 µM (inactive) and the GI50 [45] was > 239 µM (inactive). For the same compound, the GI50 [46] was > 239 µM (inactive), the GI50 [47] was > 239 µM (inactive) and the GI50 [48] was > 239 µM (inactive). For the same compound, the GI50 [49] was > 239 µM (inactive), the GI50 [50] was > 239 µM (inactive) and the GI50 [51] was > 239 µM (inactive). The GI50 [52] was > 239 µM (inactive), the GI50 [53] was > 239 µM (inactive) and the GI50 [54] was > 239 µM (inactive).
In the case of `Cc1c(C(=O)CSc2nc3cc([N+](=O)[O-])ccc3[nH]2)c(=O)n(-c2ccccc2)n1C`, the GI50 [1] is reported as > 100 µM (inactive), the GI50 [3] is reported as > 100 µM (inactive) and the GI50 [4] is reported as > 100 µM (inactive). The GI50 [6] was > 100 µM (inactive), the GI50 [8] was > 100 µM (inactive) and the GI50 [9] was > 100 µM (inactive). The GI50 [10] was > 100 µM (inactive), the GI50 [11] was over 100 µM and the GI50 [12] was 36.6 µM (inactive). The GI50 [13] was > 100 µM (inactive), the GI50 [14] was > 100 µM (inactive) and the GI50 [15] was > 100 µM (inactive). For the same compound, the GI50 [16] was 71.8 µM (inactive), the GI50 [17] was > 100 µM (inactive) and the GI50 [18] was > 100 µM (inactive). For the same compound, the GI50 [19] was > 100 µM (inactive), the GI50 [20] was > 100 µM (inactive) and the GI50 [21] was > 100 µM (inactive). The GI50 [55] was > 100 µM (inactive), the GI50 [22] was > 100 µM (inactive) and the GI50 [23] was > 100 µM (inactive). For the same compound, the GI50 [24] was > 100 µM (inactive), the GI50 [25] was > 100 µM (inactive) and the GI50 [26] was > 100 µM (inactive). The GI50 [27] was > 100 µM (inactive), the GI50 [30] was > 100 µM (inactive) and the GI50 [31] was > 100 µM (inactive). For the same compound, the GI50 [32] was > 100 µM (inactive), the GI50 [34] was > 100 µM (inactive) and the GI50 [35] was > 100 µM (inactive). The GI50 [36] was > 100 µM (inactive), the GI50 [37] was > 100 µM (inactive) and the GI50 [38] was > 100 µM (inactive). For the same compound, the GI50 [39] was > 100 µM (inactive), the GI50 [40] was > 100 µM (inactive) and the GI50 [41] was > 100 µM (inactive). For the same compound, the GI50 [42] was > 100 µM (inactive), the GI50 [43] was > 100 µM (inactive) and the GI50 [44] was > 100 µM (inactive). The GI50 [45] was 49.7 µM (inactive), the GI50 [46] was > 100 µM (inactive) and the GI50 [47] was > 100 µM (inactive). For the same compound, the GI50 [48] was > 100 µM (inactive), the GI50 [49] was > 100 µM (inactive) and the GI50 [50] was > 100 µM (inactive). The GI50 [51] was > 100 µM (inactive), the GI50 [56] was > 100 µM (inactive) and the GI50 [57] was > 100 µM (inactive). For the same compound, the GI50 [52] was > 100 µM (inactive), the GI50 [53] was > 100 µM (inactive) and the GI50 [54] was > 100 µM (inactive).
